In US20160002248A1, “GLS1 INHIBITORS FOR TREATING DISEASE” (Board of Regents, The University of Texas System, priority 2014, published 2016):

How the values were obtained:
[1] = molecular target: T1, purified recombinant human GAC (GLS1) (Homo sapiens, UniProt O94925); test: GLS1 Enzymatic Activity Assay (dual-coupled enzymatic assay); type: biochemical
T1 sequence (O94925 55-598 isoform O94925-3 limits assumed): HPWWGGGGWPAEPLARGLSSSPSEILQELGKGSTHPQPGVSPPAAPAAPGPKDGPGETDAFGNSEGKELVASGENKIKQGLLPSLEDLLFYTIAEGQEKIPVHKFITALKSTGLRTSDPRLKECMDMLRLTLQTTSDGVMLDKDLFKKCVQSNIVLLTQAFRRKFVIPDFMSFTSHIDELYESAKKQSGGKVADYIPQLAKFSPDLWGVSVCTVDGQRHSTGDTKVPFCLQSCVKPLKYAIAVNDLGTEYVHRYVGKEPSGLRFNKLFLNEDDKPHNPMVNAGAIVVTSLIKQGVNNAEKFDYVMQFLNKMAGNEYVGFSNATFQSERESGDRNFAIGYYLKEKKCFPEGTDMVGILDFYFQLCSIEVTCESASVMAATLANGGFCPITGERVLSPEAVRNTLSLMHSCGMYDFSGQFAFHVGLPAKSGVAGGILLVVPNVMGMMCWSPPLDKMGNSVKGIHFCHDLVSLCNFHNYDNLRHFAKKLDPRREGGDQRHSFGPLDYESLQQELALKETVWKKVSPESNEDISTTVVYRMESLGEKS
Description: GLS1 Enzymatic Activity Assay
The inhibition of purified recombinant human GAC by varying concentrations of inhibitors is assessed via a dual-coupled enzymatic assay. The glutamate produced by the glutaminase reaction is used by glutamate oxidase to produce α-ketoglutarate, ammonia, and hydrogen peroxide, with this hydrogen peroxide subsequently being used by horseradish peroxidase to produce resorufin in the presence of Amplex UltraRed. The assay buffer consisted of 50 mM Hepes (pH 7.4), 0.25 mM EDTA and 0.1 mM Triton X-100. GAC was incubated with potassium phosphate (10 minutes at room temperature) prior to incubation with inhibitor (10 minutes at room temperature). The final reaction conditions were as follows: 2 nM GAC, 50 mM potassium phosphate, 100 mU/mL glutamate oxidase (Sigma), 1 mM glutamine (Sigma), 100 mU/mL horseradish peroxidase (Sigma), 75 μM Amplex UltraRed (Life Technologies), and 1% (v/v) DMSO. The production of resorufin was monitored on a Perkin Elmer Envision plate reader (excitation 530 nm, emission 590 nm) either in a kinetics or endpoint mode (at 20 minutes). IC50 values were calculated using a four-parameter logistic curve fit.

A549 cells = test: Proliferation Assay (A549 cell viability, Cell Titer Fluor); type: cell-based; conditions: Homo sapiens, 72 hours
Description: A549 cells were routinely maintained in RPMI 1640 media (Gibco catalog number 11875-093) supplemented with 10% dialyzed fetal bovine serum using a humidified incubator (37° C., 5% CO2 and ambient O2). In preparation for the viability assay, cells were inoculated into 384-well black CulturPlates (Perkin Elmer) at a density of 1000 cells/well in a volume of 40 uL. Following a 24-hour incubation at 37° C., 5% CO2 and ambient O2, cells were treated with compound (10 uL) in a final DMSO concentration of 0.5% (v/v). The microplates were then incubated for 72 hours (37° C., 5% CO2 and ambient O2). Cell Titer Fluor (Promega) was subsequently added (10 uL of 6× reagent) and mixed for 15 minutes at room temperature. The plates were then incubated for 30 minutes (37° C., 5% CO2 and ambient O2) and fluorescence was subsequently read on the Perkin Elmer Envision plate reader. EC50 values were calculated using a four-parameter logistic curve fit.

| SMILES | IC50 [1] [nM] | EC50 (A549 cells) [nM] |
| --- | --- | --- |
| Nc1nnc(CCCCc2cc3cc[nH]c3nn2)s1 [Example 1, 5-(4-(7H-pyrrolo[2,3-c]pyridazin-3-yl)butyl)-1,3,4-thiadiazol-2-amine] | 500 to 5000 | – |
| O=C(Cc1ccccn1)Nc1nnc(CCCCc2cc3cc[nH]c3nn2)s1 [Example 2, N-(5-(4-(7H-pyrrolo[2,3-c]pyridazin-3-yl)butyl)-1,3,4-thiadiazol-2-yl)-2-(pyridin-2-yl)acetamide] | 500 to 5000 | 500 to 5000 |
| O=C(Cc1ccccc1)Nc1nnc(CCCCCc2cc3cc(Cc4ccccc4)[nH]c3nn2)s1 [Example 7, N-(5-(5-(6-benzyl-7H-pyrrolo[2,3-c]pyridazin-3-yl)pentyl)-1,3,4-thiadiazol-2-yl)-2-phenylacetamide] | 500 to 5000 | – |
| O=C(NCc1ccccc1)c1cn(CCCCc2cc3cc[nH]c3nn2)nn1 [Example 11, 1-(4-(7H-pyrrolo[2,3-c]pyridazin-3-yl)butyl)-N-benzyl-1H-1,2,3-triazole-4-carboxamide] | 500 to 5000 | – |
| CC(C)(O)c1ccnc(CNC(=O)c2cn(CCCCc3cc4cc(C5CC5)[nH]c4nn3)nn2)c1 [Example 17, 1-(4-(6-Cyclopropyl-7H-pyrrolo[2,3-c]pyridazin-3-yl)butyl)-N-((4-(2-hydroxypropan-2-yl)pyridin-2-yl)methyl)-1H-1,2,3-triazole-4-carboxamide 2,2,2-trifluoroacetate] | 100 to 500 | 500 to 5000 |
| Nc1nnc(CCCCc2cnc3[nH]c(Cc4ccccc4)nc3c2)s1 [Example 22, 5-(4-(2-benzyl-3H-imidazo[4,5-b]pyridin-6-yl)butyl)-1,3,4-thiadiazol-2-amine] | 500 to 5000 | – |
| O=C(Cc1ccccc1)Nc1nnc(CCCCc2cnc3[nH]c(Cc4ccccc4)nc3c2)s1 [Example 23, N-(5-(4-(2-benzyl-3H-imidazo[4,5-b]pyridin-6-yl)butyl)-1,3,4-thiadiazol-2-yl)-2-phenylacetamide] | 500 to 5000 | – |
| O=C(NCc1ccccn1)c1cn(CCCCc2cc3cc[nH]c3nn2)nn1 [Example 25, 1-(4-(7H-pyrrolo[2,3-c]pyridazin-3-yl)butyl)-N-(pyridin-2-ylmethyl)-1H-1,2,3-triazole-4-carboxamide] | 500 to 5000 | – |
| Nc1ccn(CCCCc2cc3cc(C4CC4)[nH]c3nn2)c(=O)c1 [Example 31, 4-amino-1-(4-{6-cyclopropyl-7H-pyrrolo[2,3-c]pyridazin-3-yl}butyl)-1,2-dihydropyridin-2-one] | 500 to 5000 | – |
| CC(C)(O)CNC(=O)c1nnc(CCCCc2cc3cc(Cc4ccccc4)[nH]c3nn2)s1 [Example 71, 5-(4-{6-benzyl-7H-pyrrolo[2,3-c]pyridazin-3-yl}butyl)-N-(2-hydroxy-2-methylpropyl)-1,3,4-thiadiazole-2-carboxamide] | 500 to 5000 | – |
| O=C(NCc1ccccn1)c1cn(CCCCc2cc3c4c([nH]c3nn2)CCC4)nn1 [Example 142, N-(pyridin-2-ylmethyl)-1-(4-(5,6,7,8-tetrahydrocyclopenta[4,5]pyrrolo[2,3-c]pyridazin-3-yl)butyl)-1H-1,2,3-triazole-4-carboxamide] | 500 to 5000 | – |
| O=C(NCc1cccc(OC(F)(F)F)c1)c1cn(CCCCc2cc3c(C4=CCNCC4)c(C4CC4)[nH]c3nn2)nn1 [Example 199, 1-{4-[6-cyclopropyl-5-(1,2,3,6-tetrahydropyridin-4-yl)-7H-pyrrolo[2,3-c]pyridazin-3-yl]butyl}-N-{[3-(trifluoromethoxy)phenyl]methyl}-1H-1,2,3-triazole-4-carboxamide] | 100 to 500 | – |

Other lines, results leading:

| IC50 [1] [nM] | EC50 (A549 cells) [nM] | SMILES |
| --- | --- | --- |
| < 100 | 100 to 500 | O=C(Cc1ccccc1)Nc1nnc(CCCCc2cc3cc(Cc4ccccc4)[nH]c3nn2)s1 [Example 4, N-(5-(4-(6-benzyl-7H-pyrrolo[2,3-c]pyridazin-3-yl)butyl)-1,3,4-thiadiazol-2-yl)-2-phenylacetamide] |
| < 100 | 100 to 500 | O=C(Nc1nnc(CCCCc2cc3cc(Cc4ccccc4)[nH]c3nn2)s1)[C@@H](O)c1ccccc1 [Example 5, (S)—N-(5-(4-(6-benzyl-7H-pyrrolo[2,3-c]pyridazin-3-yl)butyl)-1,3,4-thiadiazol-2-yl)-2-hydroxy-2-phenylacetamide] |
| < 100 | 500 to 5000 | NCc1cccc(CC(=O)Nc2nnc(CCCCc3cc4cc(Cc5ccccc5)[nH]c4nn3)s2)c1 [Example 6, 2-(3-(aminomethyl)phenyl)-N-(5-(4-(6-benzyl-7H-pyrrolo[2,3-c]pyridazin-3-yl)butyl)-1,3,4-thiadiazol-2-yl)acetamide] |
| < 100 | 500 to 5000 | O=C(Nc1nnc(CCCCc2cc3cc(C4CC4)[nH]c3nn2)s1)[C@@H](O)c1ccccc1 [Example 8, (S)—N-(5-(4-(6-Cyclopropyl-7H-pyrrolo[2,3-c]pyridazin-3-yl)butyl)-1,3,4-thiadiazol-2-yl)-2-hydroxy-2-phenylacetamide] |
| < 100 | 500 to 5000 | O=C(Cc1ccccc1)Nc1ccn(CCCCc2cc3cc(Cc4ccccc4)[nH]c3nn2)c(=O)c1 [Example 9, N-(1-(4-(6-Benzyl-7H-pyrrolo[2,3-c]pyridazin-3-yl)butyl)-2-oxo-1,2-dihydropyridin-4-yl)-2-phenylacetamide] |
| 100 to 500 | 500 to 5000 | CC(C)CNC(=O)c1nnc(CCCCc2cc3cc(Cc4ccccc4)[nH]c3nn2)s1 [Example 10, 5-(4-(6-Benzyl-7H-pyrrolo[2,3-c]pyridazin-3-yl)butyl)-N-isobutyl-1,3,4-thiadiazole-2-carboxamide] |
| 100 to 500 | 500 to 5000 | CC(C)c1cc2cc(CCCCn3cc(C(=O)NCc4ccccn4)nn3)nnc2[nH]1 [Example 12, 1-(4-(6-isopropyl-7H-pyrrolo[2,3-c]pyridazin-3-yl)butyl)-N-(pyridin-2-ylmethyl)-1H-1,2,3-triazole-4-carboxamide] |
| 100 to 500 | 500 to 5000 | CC(C)Cc1cc2cc(CCCCn3cc(C(=O)NCc4ccccc4)nn3)nnc2[nH]1 [Example 13, N-benzyl-1-(4-(6-isobutyl-7H-pyrrolo[2,3-c]pyridazin-3-yl)butyl)-1H-1,2,3-triazole-4-carboxamide] |
| < 100 | 500 to 5000 | O=C(NCc1ccccc1)c1cn(CCCCc2cc3cc(Cc4ccccc4)[nH]c3nn2)nn1 [Example 14, N-benzyl-1-(4-(6-benzyl-7H-pyrrolo[2,3-c]pyridazin-3-yl)butyl)-1H-1,2,3-triazole-4-carboxamide] |
| 100 to 500 | 500 to 5000 | O=C(NCc1ccccc1)c1cn(CCCCc2cc3c(I)c[nH]c3nn2)nn1 [Example 15, N-benzyl-1-(4-(5-iodo-7H-pyrrolo[2,3-c]pyridazin-3-yl)butyl)-1H-1,2,3-triazole-4-carboxamide] |
| 100 to 500 | 100 to 500 | O=C(NCc1ccccn1)c1cn(CCCCc2cc3cc(C4CC4)[nH]c3nn2)nn1 [Example 16, 1-(4-(6-cyclopropyl-7H-pyrrolo[2,3-c]pyridazin-3-yl)butyl)-N-(pyridin-2-ylmethyl)-1H-1,2,3-triazole-4-carboxamide] |
| < 100 | – | O=C(Cc1cccnc1)Nc1nnc(CCCCc2cc3cc(Cc4ccccc4)[nH]c3nn2)s1 [Example 57, N-[5-(4-{6-benzyl-7H-pyrrolo[2,3-c]pyridazin-3-yl}butyl)-1,3,4-thiadiazol-2-yl]-2-(pyridin-3-yl)acetamide] |
